Reference: ChEMBL document CHEMBL3885881, “DrugMatrix”

Species: Rattus norvegicus
Assay: DrugMatrix - Regimen: Daily Repeat
Format: toxicity, organism-based, Sprague-Dawley
Parameters: regimen Daily Repeat, gender Male, age 6-8 weeks
Settings: in vivo, po, route oral GAVAGE, […]; for ABSOLUTE BASOPHIL / ABSOLUTE EOSINOPHIL / ABSOLUTE LYMPHOCYTE / ABSOLUTE MONOCYTE / ABSOLUTE SEGMENTED NEUTROPHIL / BASOPHIL / EOSINOPHIL / ERYTHROCYTE COUNT / HEMATOCRIT / HEMOGLOBIN / LEUKOCYTE COUNT / LYMPHOCYTE / MEAN CORPUSCULAR HEMOGLOBIN / MEAN CORPUSCULAR HEMOGLOBIN CONCENTRATION / MONOCYTE / NEUTROPHIL / NUCLEATED RED BLOOD CELLS / PLATELET COUNT: tissue Blood; for ALANINE AMINOTRANSFERASE / ALBUMIN / ALKALINE PHOSPHATASE / ASPARTATE AMINOTRANSFERASE / BLOOD UREA NITROGEN / CARBON DIOXIDE / CHLORIDE / CHOLESTEROL / CREATINE PHOSPHOKINASE / CREATININE / LACTATE DEHYDROGENASE / LIPASE / PHOSPHORUS / POTASSIUM / SODIUM / TOTAL BILIRUBIN / TOTAL PROTEIN / URIC ACID: tissue Plasma
[1] = 10 mg/kg, 120 h, dose level Low, time 5 day
[2] = 1800 mg/kg, 72 h, dose level High, time 3 day
[3] = 1800 mg/kg, 120 h, dose level High, time 5 day

For `CN(CCOc1ccc(CC2SC(=O)NC2=O)cc1)c1ccccn1` (stereo not drawn) [ROSIGLITAZONE], the “ABSOLUTE BASOPHIL” value [1] was 0 CELLS/uL, the “ABSOLUTE EOSINOPHIL” value [1] was 76.67 CELLS/uL and the “ABSOLUTE LYMPHOCYTE” value [1] was 6940.67 CELLS/uL. For the same molecule, the “ABSOLUTE MONOCYTE” value [1] was 0 CELLS/uL, the “ABSOLUTE SEGMENTED NEUTROPHIL” value [1] was 749.33 CELLS/uL and the BASOPHIL [1] was 0%. The EOSINOPHIL [1] was 1%, the “ERYTHROCYTE COUNT” value [1] was 4.86 x10E6/uL and the HEMATOCRIT [1] was 32.47%. For the same molecule, the HEMOGLOBIN [1] was 12.6 G/DL, the “LEUKOCYTE COUNT” value [1] was 7.77 x10E3/uL and the LYMPHOCYTE [1] was 89.33%. The “MEAN CORPUSCULAR HEMOGLOBIN” value [1] was 25.9 pg, the “MEAN CORPUSCULAR HEMOGLOBIN CONCENTRATION” value [1] was 38.83 G/DL and the MONOCYTE [1] was 0%. The NEUTROPHIL [1] was 9.67%, the “NUCLEATED RED BLOOD CELLS” value [1] was 0 /100WBC and the “PLATELET COUNT” value [1] was 1021.33 x10E3/uL. For the same molecule, the “ALANINE AMINOTRANSFERASE” value [1] was 62 u/L, the ALBUMIN [1] was 3.97 G/DL and the “ALKALINE PHOSPHATASE” value [1] was 357.67 u/L. For the same molecule, the “ASPARTATE AMINOTRANSFERASE” value [1] was 91 u/L, the “BLOOD UREA NITROGEN” value [1] was 16.67 mg/dL and the “CARBON DIOXIDE” value [1] was 33.33 mmol/L. The CHLORIDE [1] was 101 MEQ/L, the CHOLESTEROL [1] was 67.67 mg/dL and the “CREATINE PHOSPHOKINASE” value [1] was 238 u/L. For the same molecule, the CREATININE [1] was 0.13 mg/dL, the “LACTATE DEHYDROGENASE” value [1] was 63.33 u/L and the LIPASE [1] was 13.67 u/L. For the same molecule, the PHOSPHORUS [1] was 10.13 mg/dL, the POTASSIUM [1] was 4.62 MEQ/L and the SODIUM [1] was 146.1 MEQ/L. For the same molecule, the “TOTAL BILIRUBIN” value [1] was 0.0333 mg/dL, the “TOTAL PROTEIN” value [1] was 5.5 G/DL and the “URIC ACID” value [1] was 0.27 mg/dL. The “ABSOLUTE BASOPHIL” value [2] was 0 CELLS/uL, the “ABSOLUTE EOSINOPHIL” value [2] was 26 CELLS/uL and the “ABSOLUTE LYMPHOCYTE” value [2] was 10365.67 CELLS/uL. The “ABSOLUTE MONOCYTE” value [2] was 125.33 CELLS/uL, the “ABSOLUTE SEGMENTED NEUTROPHIL” value [2] was 983 CELLS/uL and the BASOPHIL [2] was 0%. For the same molecule, the EOSINOPHIL [2] was 0.33%, the “ERYTHROCYTE COUNT” value [2] was 5.03 x10E6/uL and the HEMATOCRIT [2] was 31.87%. The HEMOGLOBIN [2] was 12.43 G/DL, the “LEUKOCYTE COUNT” value [2] was 11.5 x10E3/uL and the LYMPHOCYTE [2] was 90.67%. For the same molecule, the “MEAN CORPUSCULAR HEMOGLOBIN” value [2] was 24.77 pg, the “MEAN CORPUSCULAR HEMOGLOBIN CONCENTRATION” value [2] was 39.03 G/DL and the MONOCYTE [2] was 0.67%. For the same molecule, the NEUTROPHIL [2] was 8.33%, the “NUCLEATED RED BLOOD CELLS” value [2] was 0 /100WBC and the “PLATELET COUNT” value [2] was 1207.33 x10E3/uL. The “ALANINE AMINOTRANSFERASE” value [2] was 77.67 u/L, the ALBUMIN [2] was 3.97 G/DL and the “ALKALINE PHOSPHATASE” value [2] was 304.33 u/L. For the same molecule, the “ASPARTATE AMINOTRANSFERASE” value [2] was 99.67 u/L, the “BLOOD UREA NITROGEN” value [2] was 14.67 mg/dL and the “CARBON DIOXIDE” value [2] was 29.33 mmol/L. The CHLORIDE [2] was 103 MEQ/L, the CHOLESTEROL [2] was 44.67 mg/dL and the “CREATINE PHOSPHOKINASE” value [2] was 406.67 u/L. The CREATININE [2] was 0.29 mg/dL, the “LACTATE DEHYDROGENASE” value [2] was 107.33 u/L and the LIPASE [2] was 23.33 u/L. For the same molecule, the PHOSPHORUS [2] was 8.37 mg/dL, the POTASSIUM [2] was 4.78 MEQ/L and the SODIUM [2] was 144.7 MEQ/L. For the same molecule, the “TOTAL BILIRUBIN” value [2] was 0.17 mg/dL, the “TOTAL PROTEIN” value [2] was 5.07 G/DL and the “URIC ACID” value [2] was 0.43 mg/dL. For the same molecule, the “ABSOLUTE BASOPHIL” value [3] was 0 CELLS/uL, the “ABSOLUTE EOSINOPHIL” value [3] was 16.67 CELLS/uL and the “ABSOLUTE LYMPHOCYTE” value [3] was 4629 CELLS/uL. The “ABSOLUTE MONOCYTE” value [3] was 80.67 CELLS/uL, the “ABSOLUTE SEGMENTED NEUTROPHIL” value [3] was 707 CELLS/uL and the BASOPHIL [3] was 0%. The EOSINOPHIL [3] was 0.33%, the “ERYTHROCYTE COUNT” value [3] was 5.6 x10E6/uL and the HEMATOCRIT [3] was 34.33%. For the same molecule, the HEMOGLOBIN [3] was 13.27 G/DL, the “LEUKOCYTE COUNT” value [3] was 5.43 x10E3/uL and the LYMPHOCYTE [3] was 85.33%. The “MEAN CORPUSCULAR HEMOGLOBIN” value [3] was 23.8 pg, the “MEAN CORPUSCULAR HEMOGLOBIN CONCENTRATION” value [3] was 38.7 G/DL and the MONOCYTE [3] was 1.33%. The NEUTROPHIL [3] was 13%, the “NUCLEATED RED BLOOD CELLS” value [3] was 0 /100WBC and the “PLATELET COUNT” value [3] was 1134.33 x10E3/uL. For the same molecule, the “ALANINE AMINOTRANSFERASE” value [3] was 160.33 u/L, the ALBUMIN [3] was 3.97 G/DL and the “ALKALINE PHOSPHATASE” value [3] was 307 u/L. The “ASPARTATE AMINOTRANSFERASE” value [3] was 119 u/L, the “BLOOD UREA NITROGEN” value [3] was 16 mg/dL and the “CARBON DIOXIDE” value [3] was 26.67 mmol/L. The CHLORIDE [3] was 98.67 MEQ/L, the CHOLESTEROL [3] was 66.33 mg/dL and the “CREATINE PHOSPHOKINASE” value [3] was 501.67 u/L. For the same molecule, the CREATININE [3] was 0.25 mg/dL, the “LACTATE DEHYDROGENASE” value [3] was 115 u/L and the LIPASE [3] was 9.67 u/L. The PHOSPHORUS [3] was 7.87 mg/dL, the POTASSIUM [3] was 4.33 MEQ/L and the SODIUM [3] was 141.6 MEQ/L. For the same molecule, the “TOTAL BILIRUBIN” value [3] was 0.2 mg/dL, the “TOTAL PROTEIN” value [3] was 5.1 G/DL and the “URIC ACID” value [3] was 0.3 mg/dL.
